Like-named read-outs stand apart in the source and are kept apart here.
Tests used:
[1] = target: T1, Full length human PDE2A protease (Homo sapiens, UniProt O00408); assay: In vitro evaluation of PDE2 phosphodiesterase inhibitory activity (Transcreener AMP2/GMP2 fluorescence polarization); format: biochemical
T1 construct: Full length human PDE2A protease; GST (N); host or cells: insect Sf9 cells (baculovirus)
Description: In Vitro Evaluation of PDE2 Phosphodiesterase Inhibitory Activity Experimental objectives: To detect the concentration of AMP/GMP produced in the reaction system by measuring the fluorescence intensity of the fluorescent dye AlexaFluor 633 substituted on AMP/GMP antibody and to calculate the PDE2 phosphodiesterase inhibitory IC50 value of the test compound. Test buffer solution: 10 mM Tris-HCl, pH 7.5, 5 mM MgCl2, 0.01% Brij 35, 1 mM DTT, and 1% DMSO. Enzyme: Full length human PDE2A protease expressed and recombined in insect Sf9 cells with baculovirus using N-terminal GST tag […] Transcreener® AMP^2/GMP^2 antibody, AMP2/GMP2 AlexaFluor 633 fluorescent dye The enzyme solution was prepared with freshly prepared buffer solution and then added to the reaction wells. The DMSO solution of the test compound was added by Echo550 non-contact nanoscale sonicate pipetting system and preincubated for 10 minutes at room temperature. The reaction was initiated by addition of substrate (1 μM cGMP) and allowed to react for one hour at room temperature. The detection system (Transcreener® AMP^2/GMP^2 antibody, AMP2/GMP2 AlexaFluor 633 fluorescent dye) was then added and reacted for 90 minutes at room temperature before fluorescence polarization was detected using Ex/Em 620/688. The intensity of fluorescence polarization was converted to nM concentration by the AMP/GMP standard curve and then relative inhibition of enzyme activity relative to DMSO blank was calculated. IC50 values and curves were calculated using the Prism software package (GraphPad Software, San Diego Calif., USA)

[2] = test system: LPS-induced expression of TNF-α in rat blood; assay: In vitro effect of the compound on LPS-induced expression of TNF-α in rat blood (ELISA); format: cell-based, Sprague Dawley rats; parameters: key to TNF-α inhibitory ratio: 80% ≥ + > 60%; ++ > 80%; — N/A; conditions: final compound concentration 100 μM, 5 hours, plasma TNF-α by ELISA; for inhibition at 100 µM: read-out: TNF-α inhibitory ratio
Source text: Experimental Example 2: In Vitro Evaluation of the Effect of the Compound on LPS-Induced Expression of TNF-α in Rat Blood
Experimental Objectives: To detect in vitro the effect of the test compound on LPS-induced expression of TNF-α in rat blood and evaluate the inhibitory effect of the compound on LPS-induced expression of TNF-α in rat blood.
Sprague Dawley rats (male, 210-260 g, 8-10 weeks old, Shanghai Slack)
Rat TNF-alpha Quantikine ELISA Kit (R & D, #SRTA00)
A solution of the test compound with a concentration of 1 mM was prepared and 40 μL (final compound concentration was 100 μM) was added to a 48-well cell culture plate. Rats were anesthetized with isoflurane and blood was collected from the heart (heparin anticoagulation). The blood was added to the 48-well cell plate to which the test compound has been added, with 320 μL per well. The 48-well plate was placed in a cell incubator, incubated for 30 minutes and then removed, added with 40 μL LPS solution (100 μg/mL), mixed and placed in the incubator to continue the incubation. 5 hours later, the 48-well plate was removed and the blood sample was transferred to a 1.5 mL centrifuge tube and centrifuged in a centrifuge (4,500 rpm, 4° C., 5 minutes). The plasma was separated from the supernatant, frozen quickly after packing and stored in −80° C. refrigerator. The next day the R&D ELISA kit was used to measure TNF-α levels in plasma samples according to the instructions of the kit.

[3] = recombinant full length human PDE2A, substrate 1 μM cGMP, 1 hour at room temperature, read-out: PDE2 phosphodiesterase inhibitory activity

T1 sequence (O00408 whole entry): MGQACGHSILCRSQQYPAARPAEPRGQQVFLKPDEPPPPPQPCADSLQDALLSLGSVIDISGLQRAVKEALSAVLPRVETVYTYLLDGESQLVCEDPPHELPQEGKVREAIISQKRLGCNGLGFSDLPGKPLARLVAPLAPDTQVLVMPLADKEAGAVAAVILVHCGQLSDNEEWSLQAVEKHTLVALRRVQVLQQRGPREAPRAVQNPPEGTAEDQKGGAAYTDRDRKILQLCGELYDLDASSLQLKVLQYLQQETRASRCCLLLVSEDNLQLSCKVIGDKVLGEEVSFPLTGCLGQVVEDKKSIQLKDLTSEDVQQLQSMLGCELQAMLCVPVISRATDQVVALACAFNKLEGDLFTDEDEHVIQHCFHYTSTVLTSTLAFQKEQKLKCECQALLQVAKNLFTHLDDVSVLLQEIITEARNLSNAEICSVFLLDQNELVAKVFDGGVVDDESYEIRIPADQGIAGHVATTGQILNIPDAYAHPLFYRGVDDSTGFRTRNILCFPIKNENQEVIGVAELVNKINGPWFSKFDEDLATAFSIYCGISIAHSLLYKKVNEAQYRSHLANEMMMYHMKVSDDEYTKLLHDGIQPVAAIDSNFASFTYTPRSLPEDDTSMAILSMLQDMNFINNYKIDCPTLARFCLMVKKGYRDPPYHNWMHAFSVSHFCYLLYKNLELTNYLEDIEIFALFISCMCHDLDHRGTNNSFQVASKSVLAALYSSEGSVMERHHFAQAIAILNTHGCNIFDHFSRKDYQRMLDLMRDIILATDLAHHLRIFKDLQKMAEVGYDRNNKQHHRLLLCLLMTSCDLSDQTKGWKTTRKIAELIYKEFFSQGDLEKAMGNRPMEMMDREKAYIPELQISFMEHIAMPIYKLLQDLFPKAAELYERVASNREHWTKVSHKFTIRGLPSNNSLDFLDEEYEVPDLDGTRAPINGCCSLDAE

| Structure (SMILES) | IC50 [1, 3] | inhibition at 100 µM [2] | TNF-α inhibitory ratio [2] | IC50 [1] |
| --- | --- | --- | --- | --- |
| Cc1cc(CCCCn2cnn3cnc(CC(C)C)c3c2=O)on1 [Example 82, 5-isobutyl-3-(4-(3-methylisoxazol-5-yl)butyl)imidazo[5,1-F] [1,2,4]triazin-4-one] | 1 to 10 µM | 60 to 80% |  |  |
| Cc1cc(CCCCn2c(=O)c3cccnc3n(C)c2=O)on1 [Example 89, 1-Methyl-3-[4-(3-methylisoxazol-5-yl)butyl]pyrido[2,3-d]pyrimidine-2,4-dione] | 10 to 50 µM | > 80% |  |  |
| Cc1cc(C2CCC(n3c(=O)c4c(ncn4C)n(C)c3=O)CC2)on1 (stereo not shown) [Example 27, 3,7-Dimethyl-1-(4-(3-methylisoxazol-5-yl)cyclohexyl)-1H-purine-2,6(3H,7H)-dione] | 10 to 50 µM |  | — |  |
| Cc1cc(CCCCn2c(=O)c3c(ncn3C)n(C)c2=O)on1 [Example 19, 3,7-Dimethyl-1-(4-(3-methylisoxazol-5-yl)butyl)-1H-purine-2,6(3H,7H)-dione] |  |  | — | 10 to 50 µM |
| Cc1noc(C)c1Cn1c(=O)c2c(ncn2C)n(C)c1=O [Example 25, 1-((3,5-Dimethylisoxazol-4-yl)methyl)-3,7-dimethyl-1H-purine-2,6(3H,7H)-dione] | 10 to 50 µM |  | — |  |
| Cn1cnc2c1c(=O)n(CCCN1CCCC1=O)c(=O)n2C [Example 3, 3,7-Dimethyl-1-(3-(2-oxopyrrolidin-1-yl)propyl)-1H-purine-2,6(3H,7H)-dione] |  |  | — |  |
| Cn1ncc(CCCCn2c(=O)c3c(ncn3C)n(C)c2=O)n1 [Example 35, 3,7-Dimethyl-1-(4-(2-methyl-2H-1,2,3-triazol-4-yl)butyl)-1H-purine-(3H,7H)-dione] | 10 to 50 µM |  |  |  |
| Cn1cnc2c1c(=O)n(CCCc1c[nH]c3ccccc13)c(=O)n2C [Example 41] | 1 to 10 µM |  |  |  |
| Cc1cc(CCCCn2c(=O)c3ccn(C)c3n(C)c2=O)on1 [Example 67, 1,7-Dimethyl-3-(4-(3-methylisoxazol-5-yl)butyl)-1H-pyrrolo[2,3-d]pyrimidine-2,4(3H,7H)-dione] | 10 to 50 µM |  |  |  |
| Cc1cc(CCCCn2c(=O)c3c(ncn3CC(C)C)n(C)c2=O)on1 [Example 60, 7-Isobutyl-3-methyl-1-(4-(3-methylisoxazol-5-yl)butyl)-1H-purine-2,6(3H,7H)-dione] | 1 to 10 µM |  |  |  |

Continued, in another order:

| IC50 [1, 3] | Structure (SMILES) | inhibition at 100 µM [2] | TNF-α inhibitory ratio [2] | IC50 [1] |
| --- | --- | --- | --- | --- |
| 1 to 10 µM | CC(C)c1cc(Cn2c(=O)c3c(ncn3C)n(C)c2=O)on1 [Example 15, 1-((3-Isopropylisoxazol-5-yl)methyl)-3,7-dimethyl-1H-purine-2,6(3H,7H)-dione] | 60 to 80% |  |  |
| 1 to 10 µM | Cc1nc(C)c(CCn2c(=O)c3c(ncn3C)n(C)c2=O)s1 [Example 31, 1-(2-(2,4-Dimethylthiazol-5-yl)ethyl)-3,7-dimethyl-1H-purine-2,6(3H,7H)-dione] |  | — |  |
| 1 to 10 µM | CC(C)c1cc(Cn2c(=O)c3c(ncn3CC3CC3)n(C)c2=O)on1 [Example 59, 7-(Cyclopropylmethyl)-1-((3-isopropylisoxazol-5-yl)methyl)-3-methyl-1H-purine-2,6(3H,7H)-dione] | > 80% |  |  |
| 1 to 10 µM | Cn1cnc2c1c(=O)n(CCCCc1cc3ccccc3o1)c(=O)n2C [Example 42, 1-(4-(Benzofuran-2-yl)butyl)-3,7-dimethyl-1H-purine-2,6(3H,7H)-dione] |  |  |  |

— US10278973B2, “Hydroxyl purine compounds and use thereof” (GUANGDONG RAYNOVENT BIOTECH CO., LTD., priority 2015, dated 2019)
